The numbers were not newly measured in patent publication US20250228849A1, “FORMULATION AND MANUFACTURING PROCESS OF LIQUID FORMULATION OF RILPIVIRINE” (Aptorum Therapeutics Limited, priority 2024, published 2025), which cites them from elsewhere.

Like-named read-outs stand apart in the source and are kept apart here.

For series [1] the following is noted: pyrimidine nitrogen.
For series [2] the following is noted: hydrochloride salt form.

Consider `Cc1cc(C=CC#N)cc(C)c1Nc1ccnc(Nc2ccc(C#N)cc2)n1.Cl` [Rilpivirine hydrochloride, 4-[[4-[[4-(2-cyanovinyl)-2,6-dimethylphenyl]amino]pyrimidin-2-yl]amino]benzonitrile hydrochloride], for which the pKa entry in series [1] is reported as “approximately 5.6”. The solubility result (in DMSO) is listed as “moderately soluble”, the solubility entry (in ethanol) is given as “moderately soluble”, the solubility entry (in methanol) is reported as “moderately soluble” and the solubility result (in water) is listed as “merely sparing solubility”. In series [2], the BCS class result was “BCS Class II”.
With `Cc1cc(/C=C/C#N)cc(C)c1Nc1ccnc(Nc2ccc(C#N)cc2)n1` [rilpivirine], the solubility entry (in water) was “low aqueous solubility”.
